In US8802673B2, “Heterocyclic amine derivatives” (Hoffmann-La Roche Inc, priority 2011, dated 2014) one finds Ki and Kd data, which are given here for six compounds.

The target of test [1] is mouse TAAR1 (Mus musculus (Mouse), UniProt Q923Y8). Briefly: Radioligand binding assay on mouse TAAR1. To be noted: for Ki: mouse TAAR1 (first value of the cell), HEK-293 membranes, read-out: Ki (μM) mouse/rat. The gist of the method:
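Membranes from HEK293 cells stably expressing mouse TAAR1, Kd of radioligand determined per batch by saturation. Compounds tested 10 pM to 10 μM in duplicate, incubated 1 h at 4 °C, then filtration over PEI-soaked GF/C filters and scintillation counting.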

Test [2] deals with rat TAAR1 (Rattus norvegicus (Rat), UniProt Q923Y9). As to the kind of experiment: Radioligand binding assay on rat TAAR1. To be noted: for Ki: rat TAAR1 (second value of the cell), HEK-293 membranes, read-out: Ki (μM) mouse/rat. The procedure, abridged:
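Membranes from HEK293 cells stably expressing rat TAAR1 were used, with radioligand Kd determined by saturation for each batch. Compounds (10 pM to 10 μM, in duplicate) were incubated for 1 h at 4 °C. Bound radioactivity was collected by filtration onto PEI-soaked GF/C filters and counted by scintillation.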

Sequence of rat TAAR1 (Q923Y9 whole entry): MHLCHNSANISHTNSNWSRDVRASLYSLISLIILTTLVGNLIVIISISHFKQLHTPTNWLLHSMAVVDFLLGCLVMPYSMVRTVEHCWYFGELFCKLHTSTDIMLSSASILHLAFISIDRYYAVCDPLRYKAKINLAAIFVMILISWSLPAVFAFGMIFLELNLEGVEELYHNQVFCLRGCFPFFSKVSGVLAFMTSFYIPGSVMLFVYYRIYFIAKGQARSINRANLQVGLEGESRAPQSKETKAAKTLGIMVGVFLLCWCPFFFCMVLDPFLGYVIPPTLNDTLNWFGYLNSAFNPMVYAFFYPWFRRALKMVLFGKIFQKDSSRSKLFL
Sequence of mouse TAAR1 (Q923Y8 whole entry): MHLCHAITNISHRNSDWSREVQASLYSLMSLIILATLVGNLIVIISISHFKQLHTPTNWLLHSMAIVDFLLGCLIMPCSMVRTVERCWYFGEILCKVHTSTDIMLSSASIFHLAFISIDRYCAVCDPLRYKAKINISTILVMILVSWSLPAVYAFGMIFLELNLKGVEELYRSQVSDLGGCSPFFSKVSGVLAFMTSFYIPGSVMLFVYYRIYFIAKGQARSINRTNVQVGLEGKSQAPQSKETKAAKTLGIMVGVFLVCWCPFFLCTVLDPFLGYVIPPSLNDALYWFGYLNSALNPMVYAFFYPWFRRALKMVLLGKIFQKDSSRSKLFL

`Fc1cc(Nc2ncc(OCC(F)(F)F)cn2)ccc1[C@@H]1CNCCO1` [Example 207, (R)—N-(3-Fluoro-4-(morpholin-2-yl)phenyl)-5-(2,2,2-trifluoroethoxy)pyrimidin-2-amine]: the Ki in test [1] came to 0.0043 µM; in test [2] it was 0.0102 µM.
Consider `Fc1cc(Nc2nccc(OCC(F)(F)F)n2)ccc1[C@@H]1CNCCO1` [Example 208, (R)—N-(3-Fluoro-4-(morpholin-2-yl)phenyl)-4-(2,2,2-trifluoroethoxy)pyrimidin-2-amine], for which the Ki came out at 0.003 µM in test [1] and 0.0035 µM in test [2].
Regarding `Fc1cc(Nc2ncc(F)c(OCC(F)(F)F)n2)ccc1[C@@H]1CNCCO1` [Example 209, (R)-5-Fluoro-N-(3-fluoro-4-(morpholin-2-yl)phenyl)-4-(2,2,2-trifluoroethoxy)pyrimidin-2-amine], the Ki in test [1] came out at 0.0032 µM; in test [2] it was 0.0025 µM.
In the same order, the values of `Fc1cc(Nc2ncc(Cl)cn2)ccc1[C@@H]1CNCCO1` [Example 210, (R)-5-Chloro-N-(3-fluoro-4-(morpholin-2-yl)phenyl)pyrimidin-2-amine] are 0.0047 µM and 0.0266 µM.
In the case of `FC(F)(F)COc1ccnc(Nc2ccc([C@@H]3CNCCO3)c(Cl)c2)n1` [Example 211, ((R)-3-Chloro-4-morpholin-2-yl-phenyl)-[4-(2,2,2-trifluoro-ethoxy)-pyrimidin-2-yl]-amine], the Ki in test [1] came out at 0.0042 µM; in test [2] it was 0.0011 µM.
The term Kd denotes the equilibrium constant for the complex coming apart. Regarding `CCN(C[C@H]1COC(N)=N1)c1ccccc1` [^3[H]-(S)-4-[(ethyl-phenylamino)-methyl]-4,5-dihydro-oxazol-2-ylamine, reference compound], the Kd was about 0.7 nM in test [1] (mouse TAAR1 membranes, saturation curve, usual value, read-out: dissociation constant (Kd) of the radioligand) and about 2.3 nM in test [2] (rat TAAR1 membranes, saturation curve, usual value, read-out: dissociation constant (Kd) of the radioligand).
